Reference: patent US10556860B2, “hTERT modulators and methods of use” (Arizona Board of Regents on Behalf of the University of …, priority 2015, dated 2020)
Entries after “also recorded” stand apart in the source; their conditions may differ.

Legend:
[1] = target: G124/125A 5-12 G-quadruplex of hTERT core promoter; assay: FRET assay for Kd, G124/125A probe; assay type: binding, human
Protocol: FRET assay for compound screening and determination of Kd value. FRET probes of WT, G124/125A, and G146A of the 5-12 G-quadruplex were synthesized and labeled with FAM (Ex. 490 nm/Em. 520 nm) and TAMRA (Ex. 560 nm/Em. 580 nm) at each end by MGW Operon Inc. The WT probe (50 nM) was annealed in a buffer containing 10 mM Tris-HCl (pH 7.5) and 5 mM KCl by heating at 95° C. for 5 min and slowly cooling to room temperature. Compounds (50 μM) and probe were incubated for 1 h at room temperature. The same volume of DMSO served as a control. For Kd value determination, the WT, G124/125A, and G146A probes were annealed, and then several concentrations of compound were treated for 1 h at room temperature. Dose-dependent fluorescence intensity at 520 nm was measured by a microplate reader (BioTek Synergy HT). The data were corrected with the blank signal of buffer and compound. The relative fluorescence intensity compared to DMSO was used for binding curve fitting to determine Kd value using GraphPad Prism software.
The hTERT core promoter region includes 12 runs of consecutive guanines that form two G-quadruplexes in tandem on the G-rich strand. […] When the G-quadruplex is folded, two fluorophores are in proximity, which leads to a decrease in FAM fluorescence. […]

[2] = system: caspase-3; assay: Caspase assay in MCF7 cells; assay type: cell-based, human; conditions: 0.5-1 μM, 48 h, relative to DMSO
Protocol: Caspase assay. MCF7 cells in a 6-well plate were treated with GTC365 for 48 h. The caspase-3 assay was conducted using an Apoalert Caspase 3 Fluorescent Assay Kit (Clontech) with DEVD-AFC as a substrate of capase-3 following the manufacturer's instruction. Fluorescence intensity of released AFC was measured using a BioTek Synergy HT with excitation at 400 nm and emission at 505 nm. The relative caspase-3 activity compared to the DMSO was obtained.
Indeed at 0.5-1 μM, the BAX/BCL2 ratio was increased by over 2-fold and the capase-3 activity was increased by 47% (FIGS. 11 and 12).

[3] = system: normal human melanocytes (NHM-002); assay: Viability of normal human melanocytes; assay type: cell-based; conditions: 1.25, 2.5 and 5 μM, 72 h
Protocol: FIGS. 13A-13C are a set of graphs showingselective reduction in viability (A) and hTERT expression (B) in melanoma cells carrying hTERT core promotor mutations. NHM-002 (normal human melanocytes) and a G124A mutant cell line were treated with vehicle, 1.25, 2.5, and 5 μM GTC365 for 72 h. Viability was reduced in hTERT mutant melanoma cells by 50% (left). […] (C) Differential response to GTC365 in WT and promoter mutant cell lines.
Next, to assess the selectivity of GTC365 for hTERT-dependent cancer cells relative to normal precursorcells, we compared the effects of a range of […] on viability at 72 h in normal humanmelanocytes (NHM-002) relative to those of UACC-903, aG124A mutant (FIG. 13A). […] To confirm that the reduction in cell viability was aresult of hTERT downregulation, we performed reverse transcription and qPCR to measure the mRNA level of hTERT expression in cells treated with DMSO or 5 μMGTC365. hTERT expression was reduced by 41% in themelanoma cell line after 72 h but was undetectable in normalmelanocytes, even in the absence of GTC365 (FIG. 13B). Finally, tobroadly assess the selectivity of GTC365 for hTERT promotermutant versus WT cells, we conducted a 6-point 72 h MTSproliferation assay to determine EC50s in 14 additional melanoma cell lines with characterized TERT promoter status([…]) (FIG. 13C). […]

[4] = system: G124/125A 5-12 G-quadruplex; assay: CD kinetics, temperature-jump, G124/125A; assay type: biochemical, human; conditions: 2 equiv
Protocol: FIGS. 10A and 10B are a set of graphs showing (A) comparison of kinetics of initial folding rate of the WT 5-12 G-quadruplex with GTC365 and BRACO-19 by the temperature-jump method. (B) Enhanced initial folding rate of the 5-12 G-quadruplexes carrying different hTERT mutants by GTC365. The time-course CD signal of preheated oligo with compound or DMSO in a buffer containing 10 mM Tris-HCl (pH 7.5) and 5 mM KCl was monitored at 262 nm and 25° C.
For the kinetics analysis using the temperature-jump method, theoligo in a buffer containing 10 mM Tris-HCl (pH 7.5) was heated forl min at 95° C., and then a mixture of KCl and compound was addedand incubated for 1 min. Meanwhile, the CD cuvette was also heatedat 95° C. As soon as the sample in the CD cuvette at the hightemperature was placed in the CD chamber, a time-dependent CDsignal at 262 nm was recorded immediately. The initial folding ratewas determined by one-phase association curve fitting (eq 1) of thekinetics curve using GraphPad Prism 5: Y=Y0+(Plateau−Y0)*(1−e^−kx) (1) where Y is the CD signal at any time point x, Y0 is the Y value whentime (x) is zero, plateau is the Y value at infinite time, and k is the rateconstant.
To evaluate the comparative effects of GTC365 relative to BRACO-19 on the cooperative folding process, we carried out two different experiments. […]

N=C(N)NCCCS(=O)(=O)Nc1ccc(Nc2c3ccccc3nc3cc([N+](=O)[O-])ccc23)cc1 [GTC365]
Kd [1]: ~400 nM
increase of caspase-3 activity [2]: 47%
viability change [3]: minimal viability change; also recorded: minimal reduction
increase of initial folding rate [4]: 0.042 s⁻¹
